Reference: PubChem BioAssay (NCI)
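Test compounds were applied to cells in 96-well plates for 48 hours at 5 doses. Here, GI50 denotes the concentration required for 50% inhibition of growth. TGI: concentration producing complete growth inhibition.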

How the values were obtained:
Assay in all cases: NCI anticancer screen, dose series, 48 h
786-0 renal = tested on: 786-0 renal
A498 renal = tested on: A498 renal
A549 NSCLC = tested on: A549 NSCLC
ACHN renal = tested on: ACHN renal
BT-549 breast = tested on: BT-549 breast
CAKI-1 renal = tested on: CAKI-1 renal
CCRF-CEM leukemia = tested on: CCRF-CEM leukemia
COLO 205 colon = tested on: COLO 205 colon
DU-145 prostate = tested on: DU-145 prostate
EKVX NSCLC = tested on: EKVX NSCLC
HCC-2998 colon = tested on: HCC-2998 colon
HCT-116 colon = tested on: HCT-116 colon
HCT-15 colon = tested on: HCT-15 colon
HL-60(TB) leukemia = tested on: HL-60(TB) leukemia
HOP-62 NSCLC = tested on: HOP-62 NSCLC
HOP-92 NSCLC = tested on: HOP-92 NSCLC
HS 578T breast = tested on: HS 578T breast
HT29 colon = tested on: HT29 colon
IGROV1 ovarian = tested on: IGROV1 ovarian
K-562 leukemia = tested on: K-562 leukemia
KM12 colon = tested on: KM12 colon
LOX IMVI melanoma = tested on: LOX IMVI melanoma
M14 melanoma = tested on: M14 melanoma
MALME-3M melanoma = tested on: MALME-3M melanoma
MCF7 breast = tested on: MCF7 breast
MDA-MB-231 breast = tested on: MDA-MB-231 breast
MDA-MB-435 = tested on: MDA-MB-435
MDA-MB-468 breast = tested on: MDA-MB-468 breast
MOLT-4 leukemia = tested on: MOLT-4 leukemia
NCI-H226 lung = tested on: NCI-H226 lung
NCI-H23 lung = tested on: NCI-H23 lung
NCI-H460 lung = tested on: NCI-H460 lung
NCI-H522 lung = tested on: NCI-H522 lung
NCI/ADR-RES ovarian = tested on: NCI/ADR-RES ovarian
OVCAR-3 ovarian = tested on: OVCAR-3 ovarian
OVCAR-4 ovarian = tested on: OVCAR-4 ovarian
OVCAR-5 ovarian = tested on: OVCAR-5 ovarian
OVCAR-8 ovarian = tested on: OVCAR-8 ovarian
PC-3 prostate = tested on: PC-3 prostate
RPMI-8226 leukemia = tested on: RPMI-8226 leukemia
RXF 393 renal = tested on: RXF 393 renal
SF-268 CNS = tested on: SF-268 CNS
SF-295 CNS = tested on: SF-295 CNS
SF-539 CNS = tested on: SF-539 CNS
SK-MEL-2 melanoma = tested on: SK-MEL-2 melanoma
SK-MEL-28 melanoma = tested on: SK-MEL-28 melanoma
SK-MEL-5 melanoma = tested on: SK-MEL-5 melanoma
SK-OV-3 ovarian = tested on: SK-OV-3 ovarian
SN12C renal = tested on: SN12C renal
SNB-19 CNS = tested on: SNB-19 CNS
SNB-75 CNS = tested on: SNB-75 CNS
SR leukemia = tested on: SR leukemia
SW-620 colon = tested on: SW-620 colon
T-47D breast = tested on: T-47D breast
TK-10 renal = tested on: TK-10 renal
U251 CNS = tested on: U251 CNS
UACC-257 melanoma = tested on: UACC-257 melanoma
UACC-62 melanoma = tested on: UACC-62 melanoma
UO-31 renal = tested on: UO-31 renal

## O=C(c1ccc(Cl)cc1)C1[C@H](c2ccccc2Cl)[C@@H](c2ccccc2)NC12C(=O)Nc1ccc(Cl)cc12 (stereo partly drawn)
786-0 renal
  GI50: 19.1 µM
  TGI: 39.7 µM
A498 renal
  GI50: 19.9 µM
  TGI: 46.6 µM
A549 NSCLC
  GI50: 18.5 µM
  TGI: 46.1 µM
ACHN renal
  GI50: 25.5 µM
  TGI: 79.5 µM
BT-549 breast
  GI50: 16.2 µM
  TGI: 33.3 µM
CAKI-1 renal
  GI50: 15.2 µM
  TGI: 43.5 µM
CCRF-CEM leukemia
  GI50: 26.7 µM
  TGI: 72.9 µM
COLO 205 colon
  GI50: 16.5 µM
  TGI: 30.1 µM
DU-145 prostate
  GI50: 20.1 µM
  TGI: 42.7 µM
EKVX NSCLC
  GI50: 18 µM
  TGI: 47.6 µM
HCC-2998 colon
  GI50: 16.3 µM
  TGI: 32.7 µM
HCT-116 colon
  GI50: 14.6 µM
  TGI: 28.2 µM
HCT-15 colon
  GI50: 16.1 µM
  TGI: 31.3 µM
HL-60(TB) leukemia
  GI50: 19.9 µM
  TGI: 52.5 µM
HOP-62 NSCLC
  GI50: 14.8 µM
  TGI: 29.3 µM
HOP-92 NSCLC
  GI50: 16 µM
  TGI: 33.8 µM
HS 578T breast
  GI50: 16.5 µM
  TGI: 40.2 µM
HT29 colon
  GI50: 15.6 µM
  TGI: 32.5 µM
IGROV1 ovarian
  GI50: 16.7 µM
  TGI: 38.5 µM
K-562 leukemia
  GI50: 26.6 µM
  TGI: > 100 µM
KM12 colon
  GI50: 18.2 µM
  TGI: 38.1 µM
LOX IMVI melanoma
  GI50: 14.9 µM
  TGI: 28.1 µM
M14 melanoma
  GI50: 15.3 µM
  TGI: 28.7 µM
MALME-3M melanoma
  GI50: 15.4 µM
  TGI: 29 µM
MCF7 breast
  GI50: 17.6 µM
  TGI: 42.6 µM
MDA-MB-231 breast
  GI50: 15.6 µM
  TGI: 29.5 µM
MDA-MB-435
  GI50: 16 µM
  TGI: 30.3 µM
MDA-MB-468 breast
  GI50: 11.8 µM
  TGI: 25.8 µM
MOLT-4 leukemia
  GI50: 23.6 µM
  TGI: 78.7 µM
NCI-H226 lung
  GI50: 14.9 µM
  TGI: 30.3 µM
NCI-H23 lung
  GI50: 16.2 µM
  TGI: 33.2 µM
NCI-H460 lung
  GI50: 19 µM
  TGI: 36.3 µM
NCI-H522 lung
  GI50: 13.7 µM
  TGI: 30.3 µM
NCI/ADR-RES ovarian
  GI50: 16.3 µM
  TGI: 33.2 µM
OVCAR-3 ovarian
  GI50: 16.8 µM
  TGI: 35.3 µM
OVCAR-4 ovarian
  GI50: 20.8 µM
  TGI: 58.4 µM
OVCAR-5 ovarian
  GI50: 15.9 µM
  TGI: 31.6 µM
OVCAR-8 ovarian
  GI50: 17.9 µM
  TGI: 39.5 µM
PC-3 prostate
  GI50: 15.1 µM
  TGI: 36.1 µM
RPMI-8226 leukemia
  GI50: 25.6 µM
  TGI: 79.7 µM
RXF 393 renal
  GI50: 13.9 µM
  TGI: 29.3 µM
SF-268 CNS
  GI50: 19.5 µM
  TGI: 48.2 µM
SF-295 CNS
  GI50: 16.9 µM
  TGI: 34.8 µM
SF-539 CNS
  GI50: 16.9 µM
  TGI: 32.6 µM
SK-MEL-2 melanoma
  GI50: 16.2 µM
  TGI: 32.7 µM
SK-MEL-28 melanoma
  GI50: 17.1 µM
  TGI: 31.6 µM
SK-MEL-5 melanoma
  GI50: 16.6 µM
  TGI: 30.6 µM
SK-OV-3 ovarian
  GI50: 21 µM
  TGI: 61.2 µM
SN12C renal
  GI50: 15.3 µM
  TGI: 28.7 µM
SNB-19 CNS
  GI50: 23.1 µM
  TGI: 78.9 µM
SNB-75 CNS
  GI50: 11.1 µM
  TGI: 36.9 µM
SR leukemia
  GI50: 18.5 µM
  TGI: 47.7 µM
SW-620 colon
  GI50: 15.9 µM
  TGI: 31.8 µM
T-47D breast
  GI50: 16.1 µM
  TGI: 39.6 µM
TK-10 renal
  GI50: 19.6 µM
  TGI: 53.2 µM
U251 CNS
  GI50: 16.8 µM
  TGI: 33 µM
UACC-257 melanoma
  GI50: 20.4 µM
  TGI: 44.1 µM
UACC-62 melanoma
  GI50: 13.4 µM
  TGI: 26.7 µM
UO-31 renal
  GI50: 12.9 µM
  TGI: 37.7 µM
